The record followed here is patent US20190119282A1, “IMIDAZOPYRIDAZINES USEFUL AS INHIBITORS OF THE PAR-2 SIGNALING PATHWAY” (Vertex Pharmaceuticals Incorporated, priority 2013, published 2019).

In assay [1] the target is T1, PAR2 (HT-29 cells, trypsin activation) (Homo sapiens, UniProt P55085).
T1 construct: host or cells: HT-29 cells
T1 sequence (P55085 26-397): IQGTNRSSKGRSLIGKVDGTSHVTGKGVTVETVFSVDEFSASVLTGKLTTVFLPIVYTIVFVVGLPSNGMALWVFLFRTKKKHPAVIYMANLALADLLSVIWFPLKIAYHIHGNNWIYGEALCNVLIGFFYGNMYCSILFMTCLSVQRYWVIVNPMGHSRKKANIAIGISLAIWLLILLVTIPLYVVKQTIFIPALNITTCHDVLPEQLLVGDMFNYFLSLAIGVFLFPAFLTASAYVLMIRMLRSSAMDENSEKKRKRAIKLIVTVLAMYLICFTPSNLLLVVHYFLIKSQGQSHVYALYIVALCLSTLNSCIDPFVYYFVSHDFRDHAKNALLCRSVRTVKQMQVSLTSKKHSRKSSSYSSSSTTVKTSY
Put plainly: Ca FLIPR TETRA assay, ANTAGONIST mode, stimulation with 3.1 U/mL trypsin. The assay is classed as cell-based. The following applies: HT-29 cells, stimulation with 3.1 U/mL trypsin. How it is done:
(§1) Example 60: Protocol for Testing PAR2 Compounds in ANTAGONIST Mode Using the Ca FLIPR^TETRA Assay (384 Well)
(§2) 23000 HT-29 cells (ATCC# HTB-38) were plated in 384-well black, transparent-flat bottom plates and incubated in 25 uL of 1% FBS/McCoy's media ON at 37° C. under an atmosphere of 5% CO2. The following day, 25 uL FLIPR calcium 5 Molecular Devices assay reagent (Cat: R-8186) was added. Plates were incubated at 37° C. and r. t. for 45 min and 15 min, respectively. Compounds dilutions were prepared in 100% DMSO using a Biomek FX and diluted 20-fold in HBSS and then 5.5 uL was added directly to the cells by the FLIPR^TETRA (10× dilution) using FLIPR Tetra Pipette tips, black, non-sterile, 384 Molecular Devices (Cat: 9000-0764).
(§3) A first read was performed to determine whether the test compounds on their own can activate Ca2+ responses.
(§4) The cells were incubated with the compounds for 30 min at r. t. and then read in ANTAGONIST mode in the same plate by stimulating with 6.2 uL of a fixed concentration of the activator: final concentrations: 8 μM SLIGKV, 1 U/mL Thrombin, 3.1 U/mL trypsin, or 0.6 μM UTP.

For assay [2], the system named is UTP-stimulated Ca2+ response in HT-29 cells. Put plainly: Ca FLIPR TETRA assay, ANTAGONIST mode, stimulation with 0.6 μM UTP. Format: cell-based, human. The following applies: for IC50: Homo sapiens, HT-29 cells, stimulation with 0.6 μM UTP. How it is done:
as §1, §2, §3, §4

Assay [3] concerns the target T2, PAR2 (HT-29 cells, SLIGKV activation) (Homo sapiens, UniProt P55085).
T2 construct: host or cells: HT-29 cells
T2 sequence (P55085 26-397): T1 sequence (P55085 26-397)
In words: Ca FLIPR TETRA assay, ANTAGONIST mode, stimulation with 8 μM SLIGKV. The assay is classed as cell-based. The following applies: for IC50: HT-29 cells, stimulation with 8 μM SLIGKV; for SLIGKV % @ concentration: @ 1.9 (μM). The procedure: as §1, §2, §3, §4

The test system of assay [4] is Thrombin-stimulated Ca2+ response in HT-29 cells. Put plainly: Ca FLIPR TETRA assay, ANTAGONIST mode, stimulation with 1 U/mL Thrombin. Conditions: Homo sapiens, HT-29 cells, stimulation with 1 U/mL Thrombin. Format: cell-based, human. The procedure:
as §1, §2, §3, §4

By IC50 is commonly meant the midpoint of a concentration-inhibition curve. For the compound `C[C@H]1CN(C(=O)c2cn3nc(-c4ccc(F)cc4)cc(C(F)(F)F)c3n2)CCN1C(=O)OC(C)(C)C` [Compound I-1, tert-Butyl (2S)-4-[6-(4-fluorophenyl)-8-(trifluoromethyl)imidazo[1,2-b]pyridazine-2-carbonyl]-2-methyl-piperazine-1-carboxylate], the IC50 in assay [1] came out at 1000 nM; in assay [2] it was 3100 nM; in assay [3], 280 nM; in assay [4] it was 3600 nM.
Taken in the same sequence, the figures for `Cc1cc(-c2ccc(F)cc2)nn2cc(C(=O)N3CCN(C(=O)OC(C)(C)C)[C@@H](C)C3)nc12` [Compound I-2, tert-Butyl (2S)-4-[6-(4-fluorophenyl)-8-methyl-imidazo[1,2-b]pyridazine-2-carbonyl]-2-methyl-piperazine-1-carboxylate] were 2400 nM, 4700 nM, 860 nM and 6100 nM.
Take `CCc1cc(-c2ccc(F)cc2)nn2cc(C(=O)N3CCN(C(=O)OC(C)(C)C)[C@@H](C)C3)nc12` [Compound I-3, tert-Butyl (2S)-4-[8-ethyl-6-(4-fluorophenyl)imidazo[1,2-b]pyridazine-2-carbonyl]-2-methyl-piperazine-1-carboxylate]: the half-maximal inhibitory concentration (IC50) is 825 nM in assay [1], 16000 nM in assay [2], 160 nM in assay [3] and 18000 nM in assay [4].
Regarding `CCc1cc(-c2ccc(F)cc2)nn2cc(C(=O)N3CCN(C(=O)OC(C)(C)C)CC3(C)C)nc12` [Compound I-4, tert-Butyl 4-[8-ethyl-6-(4-fluorophenyl)imidazo[1,2-b]pyridazine-2-carbonyl]-3,3-dimethyl-piperazine-1-carboxylate], the IC50 in assay [1] amounted to 16 nM; in assay [2] it was 17000 nM; in assay [3], 3 nM; in assay [4] it was 12000 nM.
Consider `Cc1cc(-c2ccc(F)cc2)nn2cc(C(=O)N3CCCCCC3)nc12` [Compound I-6, Azepan-1-yl-[6-(4-fluorophenyl)-8-methyl-imidazo[1,2-b]pyridazin-2-yl]methanone], for which the IC50 in assay [1] is 2500 nM; in assay [2], 11000 nM; in assay [3], 1280 nM; in assay [4] it was 10000 nM.
Take `Cc1cc(-c2ccc(F)cc2)nn2cc(C(=O)N3CCN(C(=O)OCc4ccccc4)[C@@H](C)C3)nc12` [Compound I-8, (S)-Benzyl 4-(6-(4-fluorophenyl)-8-methylimidazo[1,2-b]pyridazine-2-carbonyl)-2-methylpiperazine-1-carboxylate]: the IC50 in assay [1] came out at 690 nM; in assay [2], 31000 nM; in assay [3] it was 180 nM; in assay [4] it was 43000 nM.
On to `COC(=O)[C@@H]1CCN(C(=O)c2cn3nc(-c4ccc(F)cc4)cc(C)c3n2)C[C@@H]1C` [Compound I-10, (3R,4R)-Methyl 1-(6-(4-fluorophenyl)-8-methylimidazo[1,2-b]pyridazine-2-carbonyl)-3-methylpiperidine-4-carboxylate], for which the IC50 in assay [1] worked out at 1100 nM; in assay [2], 18000 nM; in assay [3], 430 nM; in assay [4], 16000 nM.
Taken in the same sequence, the figures for `C[C@H]1CN(C(=O)c2cn3nc(-c4ccc(F)cc4)cc(C(F)(F)F)c3n2)CCN1C(=O)OCc1ccccn1` [Compound I-11, 2-Pyridylmethyl (2S)-4-[6-(4-fluorophenyl)-8-(trifluoromethyl)-imidazo-[1,2-b]pyridazine-2-carbonyl]-2-methyl-piperazine-1-carboxylate] were 300 nM, over 5000 nM, 65 nM and 9600 nM.
`C[C@H]1CN(C(=O)c2cn3nc(-c4ccc(F)cc4)cc(C(F)(F)F)c3n2)CCN1C(=O)OCc1cccnc1` [Compound I-12, 3-Pyridylmethyl (2S)-4-[6-(4-fluorophenyl)-8-(trifluoromethyl)-imidazo-[1,2-b]pyridazine-2-carbonyl]-2-methyl-piperazine-1-carboxylate]: the 50% inhibitory concentration (IC50) in assay [1] stood at 490 nM; in assay [2] it was 9200 nM; in assay [3], 84 nM; in assay [4] it was 7700 nM.
`C[C@H]1CN(C(=O)c2cn3nc(-c4ccc(F)cc4)ccc3n2)CCN1C(=O)[C@H](O)CC(C)(C)C` [Compound I-13, (2R)-1-[(2S)-4-[6-(4-Fluorophenyl)imidazo[1,2-b]pyridazine-2-carbonyl]-2-methyl-piperazin-1-yl]-2-hydroxy-4,4-dimethyl-pentan-1-one]: the IC50 came out at 2400 nM in assay [1], 13000 nM in assay [2], 480 nM in assay [3] and 13000 nM in assay [4].
For `C[C@H]1CN(C(=O)c2cn3nc(-c4ccc(F)cc4)cc(C4CC4)c3n2)CCN1C(=O)[C@H](O)CC(C)(C)C` [Compound I-14, (2R)-1-[(2S)-4-[8-Cylopropyl-6-(4-fluorophenyl)imidazo[1,2-b]pyridazine-2-carbonyl]-2-methyl-piperazin-1-yl]-2-hydroxy-4,4-dimethyl-pentan-1-one], the concentration for half-maximal inhibition (IC50) in assay [1] is 0.8 nM; in assay [2], over 5000 nM; in assay [3], 0.5 nM; in assay [4], over 5000 nM.
Regarding `C[C@H]1CN(C(=O)c2cn3nc(-c4ccc(F)cc4)cc(C(F)(F)F)c3n2)CCN1C(=O)[C@@H](CC1CCCCC1)NC(=O)OC(C)(C)C` [Compound I-15, tert-Butyl N-[(1R)-1-(cyclohexylmethyl)-2-[(2S)-4-[6-(4-fluorophenyl)-8-(trifluoromethyl)imidazo[1,2-b]pyridazine-2-carbonyl]-2-methyl-piperazin-1-yl]-2-oxo-ethyl]carbamate], the half-inhibitory concentration (IC50) was 58 nM in assay [1], over 50000 nM in assay [2], 47 nM in assay [3] and over 50000 nM in assay [4].
For the compound `C[C@H]1CN(C(=O)c2cn3nc(-c4ccc(F)cc4)cc(C(F)(F)F)c3n2)CCN1C(=O)[C@H](N)CC1CCCCC1` [Compound I-16, (2R)-2-amino-3-cyclohexyl-1-[(2S)-4-[6-(4-fluorophenyl)-8-(trifluoromethyl)imidazo[1,2-b]pyridazine-2-carbonyl]-2-methyl-piperazin-1-yl]propan-1-one], the half-maximal inhibitory concentration (IC50) in assay [1] is 280 nM; in assay [2] it was 11000 nM; in assay [3] it was 37 nM; in assay [4], 11000 nM.
Regarding `CCOC1CCN(C(=O)c2cn3nc(-c4ccc(F)cc4)cc(C(F)(F)F)c3n2)CC1` [Compound I-48], the IC50 in assay [2] and in assay [4] was over 50000 nM each time. In addition, the “SLIGKV % @ concentration” value in assay [3] is recorded as 51% @ 1.9.
As to `O=C1NCCN2CCN(C(=O)c3cn4nc(-c5ccc(F)cc5)cc(C(F)(F)F)c4n3)CC12` (stereo not shown) [Compound I-58], the IC50 in assay [2] was over 50000 nM; in assay [3] it was 1300 nM; in assay [4] it was over 50000 nM.
On to `C[C@H]1CCCCN1C(=O)c1cn2nc(-c3ccc(F)cc3)cc(C(F)(F)F)c2n1` [Compound I-65], for which the 50% inhibitory concentration (IC50) in assay [2] and in assay [4] was over 50000 nM throughout. Besides, the “SLIGKV % @ concentration” value in assay [3] is reported as 56% @ 1.9.
On to `CC(C)(C)OC(=O)NC1CCN(C(=O)c2cn3nc(-c4ccc(F)cc4)cc(C(F)(F)F)c3n2)CC1` [Compound I-74], for which the “UTP % @ concentration” value in assay [2] (@ 50 (μM)) turned out to be 62% @ 50. Also, the IC50 was 480 nM in assay [3] and over 50000 nM in assay [4].
As for `CN(C(=O)OC(C)(C)C)C1CCN(C(=O)c2cn3nc(-c4ccc(F)cc4)cc(C(F)(F)F)c3n2)CC1` [Compound I-77], the IC50 in assay [2] is over 50000 nM; in assay [3] it was 680 nM; in assay [4], over 50000 nM.
`C[C@H]1CN(C(=O)c2cn3nc(-c4ccc(F)cc4)cc(C(F)(F)F)c3n2)CCN1C(=O)c1cc(-c2ccccc2)n[nH]1` [Compound I-87]: the IC50 in assay [2] was over 50000 nM; in assay [3], 21 nM; in assay [4], over 50000 nM.
For the compound `C[C@H]1CN(C(=O)c2cn3nc(-c4ccc(F)cc4)cc(C(F)(F)F)c3n2)CCN1C(=O)c1ncc[nH]1` [Compound I-88], the IC50 in assay [2] is over 50000 nM; in assay [3], 680 nM; in assay [4] it was over 50000 nM.
On to `Cc1cc(F)ccc1-c1cc(C(C)C)c2nc(C(=O)N3CCNC(=O)C3(C)C)cn2n1` [Compound I-478], for which the IC50 is over 1000 nM in assay [2] (antagonist mode), 790 nM in assay [3] (antagonist mode) and over 1000 nM in assay [4] (antagonist mode).
